Source: ChEMBL document CHEMBL4665871, “Small-molecule active pharmaceutical ingredients of approved cancer therapeutics inhibit human aspartate/asparagine-β-hydroxylase” (Bioorg Med Chem, 2020)

What was measured:
[1] = molecular target: T1, Aspartyl/asparaginyl beta-hydroxylase (Homo sapiens, UniProt Q12797); experiment: Inhibition of N-His6-tagged human AspH (315-755) expressed in Escherichia coli BL21 (DE3) using 1 uM hFX-CP as substrate mixture with high 200 uM 2OG, 100 uM L-ascorbic acid and 2 uM FAS incubated for 35 mins by MS analysis
T1 sequence (Q12797 whole entry): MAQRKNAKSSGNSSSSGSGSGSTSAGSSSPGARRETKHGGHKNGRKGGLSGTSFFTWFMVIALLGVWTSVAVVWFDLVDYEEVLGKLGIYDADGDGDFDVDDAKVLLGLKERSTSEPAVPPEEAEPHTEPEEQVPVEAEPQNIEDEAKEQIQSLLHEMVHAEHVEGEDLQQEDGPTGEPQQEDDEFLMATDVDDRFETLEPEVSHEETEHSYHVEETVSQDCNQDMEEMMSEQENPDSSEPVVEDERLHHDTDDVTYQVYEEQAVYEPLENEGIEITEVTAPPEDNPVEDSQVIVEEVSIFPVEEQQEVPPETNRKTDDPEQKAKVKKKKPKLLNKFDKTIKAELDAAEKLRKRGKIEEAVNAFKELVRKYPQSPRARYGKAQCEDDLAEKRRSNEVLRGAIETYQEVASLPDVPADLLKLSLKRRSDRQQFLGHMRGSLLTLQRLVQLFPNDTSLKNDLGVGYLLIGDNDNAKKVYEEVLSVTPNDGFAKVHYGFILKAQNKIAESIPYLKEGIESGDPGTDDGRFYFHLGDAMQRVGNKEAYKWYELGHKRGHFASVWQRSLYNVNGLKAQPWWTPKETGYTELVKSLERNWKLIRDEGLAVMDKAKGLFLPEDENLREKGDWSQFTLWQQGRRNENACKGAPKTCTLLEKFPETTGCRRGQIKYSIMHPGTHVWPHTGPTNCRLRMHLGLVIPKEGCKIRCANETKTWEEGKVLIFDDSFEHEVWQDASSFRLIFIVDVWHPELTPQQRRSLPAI

[2] = molecular target: T1, Aspartyl/asparaginyl beta-hydroxylase; experiment: Inhibition of N-His6-tagged human AspH (315-755) expressed in Escherichia coli BL21 (DE3) using 1 uM hFX-CP as substrate mixture with 3 uM 2OG, 100 uM L-ascorbic acid and high 20 uM FAS incubated for 35 mins by MS analysis
[3] = molecular target: T1, Aspartyl/asparaginyl beta-hydroxylase; experiment: Inhibition of N-His6-tagged human AspH (315-755) expressed in Escherichia coli BL21 (DE3) using high 10 uM hFX-CP as substrate mixture with 10 uM 2OG, 100 uM L-ascorbic acid and 2 uM FAS incubated for 35 mins by MS analysis

Q: How did the IC50 [1] turn out when `CO[C@H](C(=O)[C@@H](O)[C@@H](C)O)[C@@H]1Cc2cc3cc(O[C@H]4C[C@@H](O[C@H]5C[C@@H](O)[C@H](O)[C@@H](C)O5)[C@H](O)[C@@H](C)O4)c(C)c(O)c3c(O)c2C(=O)[C@H]1O[C@H]1C[C@@H](O[C@H]2C[C@@H](O[C@H]3C[C@](C)(O)[C@H](O)[C@@H](C)O3)[C@@H](O)[C@@H](C)O2)[C@H](O)[C@@H](C)O1` was run?
A: Its IC50 is 12.2 µM.

Q: And the IC50 [2]?
A: Its IC50 is “Not Active”.

Q: What about the IC50 [3] of the same compound?
A: The IC50 was 3.39 µM.
